Earlier results as cited in patent publication US20130347140A1, “High Rebaudioside-A Plant and Methods of Producing the Same and Uses Thereof” (priority 2010, published 2013).

Conditions: vs sugar

SMILES | sweetness, × of sugar
C=C1C[C@@]23CC[C@H]4[C@@](C)(CCC[C@@]4(C)C(=O)O[C@@H]4O[C@H](CO)[C@@H](O)[C@H](O)[C@H]4O)[C@@H]2CC[C@]1(O[C@@H]1O[C@H](CO)[C@@H](O)[C@H](O)[C@H]1O[C@@H]1O[C@H](CO)[C@@H](O)[C@H](O)[C@H]1O)C3 [Stevioside] | 250-300 ×
C=C1C[C@@]23CC[C@H]4[C@@](C)(CCC[C@@]4(C)C(=O)O[C@@H]4O[C@H](CO)[C@@H](O)[C@H](O)[C@H]4O)[C@@H]2CC[C@]1(O[C@@H]1O[C@H](CO)[C@@H](O)[C@H](O[C@@H]2O[C@H](CO)[C@@H](O)[C@H](O)[C@H]2O)[C@H]1O[C@@H]1O[C@H](CO)[C@@H](O)[C@H](O)[C@H]1O)C3 [Rebaudioside A] | 350-450 ×
